This passage reports IC50 results from patent US9073892B2, “Indazolyl triazol derivatives” (Merck Serono S.A., priority 2010, dated 2015).

Counter-ions that a name gives are not always drawn.

In one experiment the test system is T1, IRAK1/4 human.
T1 construct: fused on or other part: His tag and TEV cleavage site at the N-terminus
Put plainly: IRAK1/4 phosphorylation IC50 (enzymatic assay, table 2). Format: biochemical. As to conditions: human IRAK1/4 phosphorylation. The procedure, abridged: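 His-TEV-tagged human IRAK-1 or IRAK-4 (IRAK-4 with STK1-biotin peptide) was incubated in 384-well plates with ATP and compounds in DMSO from 20 µM to 1 nM, with 2% DMSO controls. The buffer was Hepes pH7.0 50 mM with MgCl2, DTT, EGTA and BSA, and reactions ran 2 or 3 hours. Inhibition was reported as IC50.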

For experiment [1], the system named is IL-6 secretion in human PBMC. Put plainly: IRAK IL-6 secretion functional assay in human PBMC. The experiment is classed as cell-based. The settings on record: preincubated 1 h with test article, stimulated with 10 ng/ml IL1, 18-20 h, ELISA. The protocol:
IRAK IL-6 Secretion Functional Assay in Human PBMC
Human PBMCs from healthy volunteers were purified from buffy coats of heparinized whole blood by density centrifugation on Ficoll-Hypaque. Isolated PBMCs were washed twice in PBS, counted, and seeded at a density of 7×10^4 cells/well in 180 µl of complete RPMI 1640 medium containing 10% heat-inactivated FBS. PBMC were preincubated for 1 h with serial dilutions of test article dissolved in DMSO (final DMSO concentration 0.33%) at 37° C. in a 5% CO2 incubator. PBMC were then stimulated with 10 ng/ml of IL1-(final volume […]) and incubation was continued for 18-20 h. The supernatants were collected and IL-6 was quantified using the Duo-set ELISA kit (R&D Systems) following manufacturer's instructions
For orientation: ELISA stands for enzyme-linked immunosorbent assay.

The test system of experiment [2] is IL1β-induced IL8 release in THP1 cells. In words: IRAK IL8 secretion functional assay. The experiment is classed as cell-based. As to conditions: Homo sapiens; THP-1 cells, IL1β 100 ng/ml overnight, IL8 by HTRF; read-out: IC50, Secretion THP-1/IL-β induced IL8 release. The procedure, abridged:
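THP-1 cells (30,000/well, RPMI 1640) were incubated overnight at 37 °C, 5% CO2 with compound (20 μM to 1 nM) plus IL1β at 100 ng/ml final. IL-8 in the supernatant was measured by HTRF with europium cryptate- and XL665-labelled anti-IL8 antibodies, read after 3 h at 30 °C.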
For orientation: Time-resolved FRET reads energy transfer from a long-lived donor to a nearby acceptor.

For the compound `O=C(c1ccc(-n2cc(-c3n[nH]c4ccccc34)nn2)cc1)N1CCCC(CN2CCCC2)C1` (centres unmarked) [Example 2, 3-[1-(4-{[3-(pyrrolidin-1-ylmethyl)piperidin-1-yl]carbonyl}phenyl)-1H-1,2,3-triazol-4-yl]-1H-indazole], the IC50 in the experiment on IRAK1/4 human was less than 100 nM; in experiment [1], 200 to 2000 nM; in experiment [2], less than 100 nM.
On to `Cc1ccc2[nH]nc(-c3cn(-c4ccc(CN5CCOCC5)cc4)nn3)c2c1` [Example 7, 5-methyl-3-{1-[4-(morpholin-4-ylmethyl)phenyl]-1H-1,2,3-triazol-4-yl}-1H-indazole], for which the values for the IC50 (in the experiment on IRAK1/4 human; in experiment [1]; in experiment [2]) were 100 to 1000 nM, 200 to 2000 nM and 100 to 1000 nM, respectively.
Regarding `O=C(c1ccc(-n2cc(-c3n[nH]c4ccccc34)nn2)cc1)N1CCCC(O)C1` (centres unmarked) [Example 30], the IC50 in the experiment on IRAK1/4 human fell in the range of 100 to 1000 nM; in experiment [1], 200 to 2000 nM; in experiment [2] it was 100 to 1000 nM.
For `O=C(c1ccc(-n2cc(-c3n[nH]c4ccccc34)nn2)cc1)N1CCCC(CO)C1` (centres unmarked) [Example 33], the IC50 in the experiment with IRAK1/4 human was less than 100 nM; in experiment [1], less than 200 nM; in experiment [2], 100 to 1000 nM.
Take `Cc1ccc(=O)n(Cc2ccc3[nH]nc(-c4cn(-c5ccc(C(=O)N6CCOCC6)cc5)nn4)c3c2)n1` [Example 110]: the IC50 lay in the range of 100 to 1000 nM in the experiment with IRAK1/4 human and 1000 to 5000 nM in experiment [2].
Regarding `O=C(Nc1cnn(CCN2CCOCC2)c1)c1ccc(-n2cc(-c3n[nH]c4ccccc34)nn2)cc1` [Example 111, 4-[4-(1H-indazol-3-yl)-1H-1,2,3-triazol-1-yl]-N-[1-(2-morpholin-4-ylethyl)-1H-pyrazol-4-yl]benzamide], the IC50 (in the experiment with IRAK1/4 human; in experiment [2]) was 100 to 1000 nM in each case.
For the compound `CN1CCC(n2cc(NC(=O)c3ccc(-n4cc(-c5n[nH]c6ccccc56)nn4)cc3)cn2)C1` (centres unmarked) [Example 112, 4-[4-(1H-indazol-3-yl)-1H-1,2,3-triazol-1-yl]-N-[1-(1-methylpyrrolidin-3-yl)-1H-pyrazol-4-yl]benzamide], the IC50 in the experiment with IRAK1/4 human is less than 100 nM; in experiment [2], 100 to 1000 nM.
On the same counts, the results for `COCCC1CCCN(C(=O)c2ccc(-n3cc(-c4n[nH]c5ccccc45)nn3)cc2)C1` (centres unmarked) [Example 113] are 100 to 1000 nM and 100 to 1000 nM.
For `O=C(c1ccc(-n2cc(-c3n[nH]c4ccccc34)nn2)cc1)N1CC(O)C1` [Example 114, 1-{4-[4-(1H-indazol-3-yl)-1H-1,2,3-triazol-1-yl]benzoyl}azetidin-3-ol] the same measures were 100 to 1000 nM and 100 to 1000 nM.
On the same counts, the results for `Cc1nccn1CC1CCCN(C(=O)c2ccc(-n3cc(-c4n[nH]c5ccccc45)nn3)cc2)C1` (centres unmarked) [Example 115, 3-{1-[4-({3-[(2-methyl-1H-imidazol-1-yl)methyl]piperidin-1-yl}carbonyl)phenyl]-1H-1,2,3-triazol-4-yl}-1H-indazole] are 100 to 1000 nM and 100 to 1000 nM.
Turning to `O=C(c1ccc(-n2cc(-c3n[nH]c4ccccc34)nn2)cc1)N1CCCCC1CCO` (centres unmarked) [Example 117, 2-(1-{4-[4-(1H-indazol-3-yl)-1H-1,2,3-triazol-1-yl]benzoyl}piperidin-2-yl)ethanol], the IC50 (with IRAK1/4 human; in experiment [2]) was 100 to 1000 nM throughout.
For the compound `COCC1CCCN(C(=O)c2ccc(-n3cc(-c4n[nH]c5ccccc45)nn3)cc2)C1` (centres unmarked) [Example 118, 3-[1-(4-{[3-(methoxymethyl)piperidin-1-yl]carbonyl}phenyl)-1H-1,2,3-triazol-4-yl]-1H-indazole], the IC50 (in the experiment with IRAK1/4 human; in experiment [2]) was 100 to 1000 nM in each case.
Regarding `O=C(c1ccc(-n2cc(-c3n[nH]c4ccccc34)nn2)cc1)N1CCC(N2CCCC2)CC1` [Example 120, 3-(1-{4-[(4-pyrrolidin-1-ylpiperidin-1-yl)carbonyl]phenyl}-1H-1,2,3-triazol-4-yl)-1H-indazole], the IC50 (in the experiment on IRAK1/4 human; in experiment [2]) was 100 to 1000 nM throughout.
For the compound `O=C(c1ccc(-n2cc(-c3n[nH]c4ccc(C5CCN(CCF)CC5)cc34)nn2)cc1)N1CCOCC1` [Example 121, 5-[1-(2-fluoroethyl)piperidin-4-yl]-3-{1-[4-(morpholin-4-ylcarbonyl)phenyl]-1H-1,2,3-triazol-4-yl}-1H-indazole], the IC50 in the experiment with IRAK1/4 human was less than 100 nM; in experiment [2], 100 to 1000 nM.
On to `Cn1cc(-c2ccc3[nH]nc(-c4cn(-c5ccc(C(=O)N6CCOCC6)cc5)nn4)c3c2)cn1` [Example 123, 5-(1-methyl-1H-pyrazol-4-yl)-3-{1-[4-(morpholin-4-ylcarbonyl)phenyl]-1H-1,2,3-triazol-4-yl}-1H-indazole], for which the IC50 (in the experiment on IRAK1/4 human; in experiment [2]) was less than 100 nM in each case.
On to `CN1CCC(c2ccc3[nH]nc(-c4cn(-c5ccc(C(=O)N6CCOCC6)cc5)nn4)c3c2)CC1` [Example 124, 5-(1-methylpiperidin-4-yl)-3-{1-[4-(morpholin-4-ylcarbonyl)phenyl]-1H-1,2,3-triazol-4-yl}-1H-indazole], for which the IC50 was less than 100 nM with IRAK1/4 human, less than 200 nM in experiment [1] and 100 to 1000 nM in experiment [2].
For the compound `O=C(c1ccc(-n2cc(-c3n[nH]c4ccccc34)nn2)cc1)N1CCCC(Cn2ccnc2)C1` (centres unmarked) [Example 126, 3-[1-(4-{[3-(1H-imidazol-1-ylmethyl)piperidin-1-yl]carbonyl}phenyl)-1H-1,2,3-triazol-4-yl]-1H-indazole], the figures for the IC50 (in the experiment with IRAK1/4 human; in experiment [2]) were less than 100 nM and 100 to 1000 nM, respectively.
For `COC1CCCN(C(=O)c2ccc(-n3cc(-c4n[nH]c5ccccc45)nn3)cc2)C1` (centres unmarked) [Example 127] the same measures were less than 100 nM and 100 to 1000 nM.
On the same counts, the results for `O=C(Nc1cnn(C2CCNCC2)c1)c1ccc(-n2cc(-c3n[nH]c4ccccc34)nn2)cc1` [Example 128, 4-[4-(1H-indazol-3-yl)-1H-1,2,3-triazol-1-yl]-N-(1-piperidin-4-yl-1H-pyrazol-4-yl)benzamide hydrochloride] are 100 to 1000 nM and 1000 to 5000 nM.
As for `O=C(Nc1cnn(C2CCCNCC2)c1)c1ccc(-n2cc(-c3n[nH]c4ccccc34)nn2)cc1` (centres unmarked) [Example 129, N-(1-azepan-4-yl-1H-pyrazol-4-yl)-4-[4-(1H-indazol-3-yl)-1H-1,2,3-triazol-1-yl]benzamide hydrochloride], the results for the IC50 (in the experiment with IRAK1/4 human; in experiment [2]) were 100 to 1000 nM and 1000 to 5000 nM, respectively.
As for `c1ccc2c(-c3cn(-c4ccc(C5CCNCC5)cc4)nn3)n[nH]c2c1` [Example 132, 3-[1-(4-piperidin-4-ylphenyl)-1H-1,2,3-triazol-4-yl]-1H-indazole hydrochloride], the IC50 is 100 to 1000 nM in the experiment on IRAK1/4 human and 200 to 2000 nM in experiment [1].
For `Cc1ccc2c(-c3cn(-c4ccc(C5CCN(CC(O)C(F)(F)F)CC5)cc4)nn3)n[nH]c2c1` (centres unmarked) [Example 136, 1,1,1-trifluoro-3-(4-{4-[4-(6-methyl-1H-indazol-3-yl)-1H-1,2,3-triazol-1-yl]phenyl}piperidin-1-yl)propan-2-ol] the same measures were less than 100 nM and 200 to 2000 nM.
`c1ccc2c(-c3cn(-c4ccc(CN5C[C@@H]6C[C@H]5CO6)cc4)nn3)n[nH]c2c1` [Example 145, 3-(1-{4[(1S,4S)-2-oxa-5-azabicyclo[2.2.1]hept-5-ylmethyl]phenyl}-1H-1,2,3-triazol-4-yl)-1H-indazole]: the IC50 in the experiment on IRAK1/4 human was 100 to 1000 nM; in experiment [1] it was 200 to 2000 nM.
The compound `CN(C)C1CCN(C(=O)c2ccc(-n3cc(-c4n[nH]c5ccc(F)cc45)nn3)cc2)CC1` [Example 158] returned an IC50 in experiment [1] of less than 200 nM.
As for `c1ccc2c(-c3cn(-c4ccc(CN5CCOCC5)cc4)nn3)n[nH]c2c1` [Example 188], the figures for the IC50 (in the experiment with IRAK1/4 human; in experiment [1]) were 100 to 1000 nM and 200 to 2000 nM, respectively.
On the same counts, the results for `O=c1ccc(-c2cccnc2)nn1Cc1ccc2[nH]nc(-c3cn(-c4ccc(CN5CCOCC5)cc4)nn3)c2c1` [Example 197] are less than 100 nM and less than 200 nM.
For `O=C(c1ccc(-n2cc(-c3n[nH]c4ccc(C5CCCNC5)cc34)nn2)cc1)N1CCOCC1` (centres unmarked) [Example 204] the same measures were less than 100 nM and 200 to 2000 nM.
For the compound `O=C(c1ccc(-n2cc(-c3n[nH]c4cc(-c5cccnc5)ccc34)nn2)cc1)N1CCOCC1` [Example 210], the IC50 in the experiment with IRAK1/4 human was in the range of 100 to 1000 nM; in experiment [1], 200 to 2000 nM.
For `Cc1ccc2c(-c3cn(-c4cnn(C5CC6CCC(C5)N6C)c4)nn3)n[nH]c2c1` (centres unmarked) [Example 224] the same measures were less than 100 nM and 200 to 2000 nM.
As for `O=C(NC1CCCNC1)c1ccc2[nH]nc(-c3cn(-c4ccc(CN5CCOCC5)cc4)nn3)c2c1` (centres unmarked) [Example 238], the IC50 is less than 100 nM with IRAK1/4 human and less than 200 nM in experiment [1].
For `CN1[C@@H]2CC[C@H]1C[C@@H](c1ccc(-n3cc(-c4n[nH]c5ccccc45)nn3)cc1)C2` [Example 251] the same measures were 100 to 1000 nM and 200 to 2000 nM.
For `Cc1ccc2c(-c3cn(-c4ccc(C5CCN(C6CCOCC6)CC5)cc4)nn3)n[nH]c2c1` [Example 298] the same measures were 100 to 1000 nM and 200 to 2000 nM.
